Data reported in PMC6090053, “Substrate Specificity of Acyltransferase Domains for Efficient Transfer of Acyl Groups” (Frontiers in Microbiology, 2018).
One block for each compound: values may come before it.

Experiments:
[1] = molecular target: T1, AT5monAIV of monensin PKS (Streptomyces virginiae, UniProt Q846X3); experiment: trans-acylation of holo-ACP10FkbA, HPLC-MS; format: biochemical; settings: 16 uM acyl-CoA, 16 uM holo-ACP10FkbA, 1.6 uM AT, pH 8.0, 25 C, 2 h
T1 construct: gene monAIV; excised AT domain of module 5, synthetic gene, E. coli BL21(DE3), Ni-NTA
From the text: trans-acylation of holo-ACP10FkbA, HPLC-MS on AT5monAIV of monensin PKS

[2] = molecular target: T1, AT5monAIV of monensin PKS; experiment: self-acylation, HPLC-MS of intact protein; format: biochemical; settings: 200 uM acyl-CoA, 20 uM AT, pH 8.0, 25 C, 1 h; covalent acyl-enzyme
From the text: (§1) self-acylation, HPLC-MS of intact protein on AT5monAIV of monensin PKS

AT4FkbB of FK520 PKS [3] = molecular target: T2, AT4FkbB of FK520 PKS (Streptomyces hygroscopicus, UniProt Q9KIE0); experiment: self-acylation, HPLC-MS of intact protein; format: biochemical; settings: 200 uM acyl-CoA, 20 uM AT, pH 8.0, 25 C, 1 h; covalent acyl-enzyme
T2 construct: gene fkbB; excised AT domain of module 4 of FkbB, synthetic gene, E. coli BL21(DE3), Ni-NTA
From the text: (§2) self-acylation, HPLC-MS of intact protein on AT4FkbB of FK520 PKS

AT4FkbB of FK520 PKS [4] = molecular target: T2, AT4FkbB of FK520 PKS; experiment: self-acylation, HPLC-MS of intact protein; format: biochemical; settings: 200 uM acyl-CoA, 20 uM AT, pH 8.0, 25 C, 1 h; covalent acyl-enzyme; remark: listed apart in the source
From the text: as §2

[5] = molecular target: T3, AT3lsd12 of lasalocid PKS (Streptomyces lasalocidi, UniProt B6ZK65); experiment: self-acylation, HPLC-MS of intact protein; format: biochemical; settings: 200 uM acyl-CoA, 20 uM AT, pH 8.0, 25 C, 1 h; covalent acyl-enzyme
T3 construct: gene lsd12; excised AT domain of module 3, synthetic gene, E. coli BL21(DE3), Ni-NTA
From the text: (§3) self-acylation, HPLC-MS of intact protein on AT3lsd12 of lasalocid PKS

[6] = molecular target: T3, AT3lsd12 of lasalocid PKS; experiment: self-acylation, HPLC-MS of intact protein; format: biochemical; settings: 200 uM acyl-CoA, 20 uM AT, pH 8.0, 25 C, 1 h; covalent acyl-enzyme; remark: listed apart in the source
From the text: as §3

AT4FkbB of FK520 PKS [7] = molecular target: T2, AT4FkbB of FK520 PKS; experiment: self-acylation, HPLC-MS of intact protein; format: biochemical; settings: 200 uM acyl-CoA, 20 uM AT, pH 8.0, 25 C, 1 h; covalent acyl-enzyme; remark: listed apart in the source
From the text: as §2

AT4FkbB of FK506 PKS [8] = molecular target: T4, AT4FkbB of FK506 PKS (Streptomyces tsukubensis, UniProt W8RMH0); experiment: self-acylation, HPLC-MS of intact protein; format: biochemical; settings: 200 uM acyl-CoA, 20 uM AT, pH 8.0, 25 C, 1 h; covalent acyl-enzyme at Ser89
T4 construct: gene fkbB; excised AT domain of module 4 of FkbB, E. coli BL21(DE3), Ni-NTA
From the text: (§4) self-acylation, HPLC-MS of intact protein on AT4FkbB of FK506 PKS

AT4FkbB of FK506 PKS [9] = molecular target: T5, AT4FkbB of FK506 PKS (Streptomyces tsukubensis, UniProt W8RMH0, L6753I/V6754D/V6755T); experiment: self-acylation, HPLC-MS of intact protein; format: biochemical; settings: 200 uM acyl-CoA, 20 uM AT, pH 8.0, 25 C, 1 h; covalent acyl-enzyme
T5 construct: gene fkbB; excised AT domain of module 4 of FkbB, E. coli BL21(DE3), Ni-NTA
From the text: as §4

AT4FkbB of FK506 PKS [10] = molecular target: T6, AT4FkbB of FK506 PKS (Streptomyces tsukubensis, UniProt W8RMH0, Q6687A); experiment: self-acylation, HPLC-MS of intact protein; format: biochemical; settings: 200 uM acyl-CoA, 20 uM AT, pH 8.0, 25 C, 1 h; covalent acyl-enzyme
T6 construct: gene fkbB; excised AT domain of module 4 of FkbB, E. coli BL21(DE3), Ni-NTA
From the text: as §4

AT4FkbB of FK506 PKS [11] = molecular target: T7, AT4FkbB of FK506 PKS (Streptomyces tsukubensis, UniProt W8RMH0, Q6687A/L6753I/V6754D/V6755T/F6771L); experiment: self-acylation, HPLC-MS of intact protein; format: biochemical; settings: 200 uM acyl-CoA, 20 uM AT, pH 8.0, 25 C, 1 h; covalent acyl-enzyme
T7 construct: gene fkbB; excised AT domain of module 4 of FkbB, E. coli BL21(DE3), Ni-NTA
From the text: as §4

AT4FkbB of FK506 PKS [12] = molecular target: T8, AT4FkbB of FK506 PKS (Streptomyces tsukubensis, UniProt W8RMH0, V6755K); experiment: self-acylation, HPLC-MS of intact protein; format: biochemical; settings: 200 uM acyl-CoA, 20 uM AT, pH 8.0, 25 C, 1 h; covalent acyl-enzyme
T8 construct: gene fkbB; excised AT domain of module 4 of FkbB, E. coli BL21(DE3), Ni-NTA
From the text: as §4

[13] = self-acylation, HPLC-MS of intact protein; format: biochemical, Streptomyces virginiae; settings: 200 uM acyl-CoA, 20 uM AT, pH 8.0, 25 C, 1 h; covalent acyl-enzyme
From the text: as §1

T2 sequence (Q9KIE0 entry or part of it): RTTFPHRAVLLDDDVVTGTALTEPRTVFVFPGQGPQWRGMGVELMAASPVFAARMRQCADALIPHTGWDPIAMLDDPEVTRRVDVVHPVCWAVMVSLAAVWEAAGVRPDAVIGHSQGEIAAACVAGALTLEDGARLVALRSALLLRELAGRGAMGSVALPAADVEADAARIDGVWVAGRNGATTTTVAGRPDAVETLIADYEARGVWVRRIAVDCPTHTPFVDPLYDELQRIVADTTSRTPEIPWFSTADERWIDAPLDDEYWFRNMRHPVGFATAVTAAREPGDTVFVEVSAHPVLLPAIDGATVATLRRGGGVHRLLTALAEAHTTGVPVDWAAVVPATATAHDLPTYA
T3 sequence (B6ZK65 entry or part of it): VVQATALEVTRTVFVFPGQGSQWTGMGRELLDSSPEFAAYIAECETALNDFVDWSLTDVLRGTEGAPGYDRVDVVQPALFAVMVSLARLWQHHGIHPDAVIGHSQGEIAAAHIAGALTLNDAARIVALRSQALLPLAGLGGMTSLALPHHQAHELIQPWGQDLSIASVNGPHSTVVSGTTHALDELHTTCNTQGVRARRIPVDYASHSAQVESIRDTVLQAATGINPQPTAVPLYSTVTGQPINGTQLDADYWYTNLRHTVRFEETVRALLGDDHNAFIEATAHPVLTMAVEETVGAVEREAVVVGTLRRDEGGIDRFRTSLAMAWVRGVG
T4 sequence (W8RMH0 entry or part of it): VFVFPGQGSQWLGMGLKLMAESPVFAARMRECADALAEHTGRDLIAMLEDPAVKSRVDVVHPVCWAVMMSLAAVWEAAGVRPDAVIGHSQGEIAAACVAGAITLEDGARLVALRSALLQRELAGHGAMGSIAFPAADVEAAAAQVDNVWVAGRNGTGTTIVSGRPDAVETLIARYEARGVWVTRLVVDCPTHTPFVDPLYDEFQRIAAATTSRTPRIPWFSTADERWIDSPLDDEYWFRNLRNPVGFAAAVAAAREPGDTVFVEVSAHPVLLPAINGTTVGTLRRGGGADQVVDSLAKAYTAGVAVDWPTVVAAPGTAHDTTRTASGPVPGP
T1 sequence (Q846X3 entry or part of it): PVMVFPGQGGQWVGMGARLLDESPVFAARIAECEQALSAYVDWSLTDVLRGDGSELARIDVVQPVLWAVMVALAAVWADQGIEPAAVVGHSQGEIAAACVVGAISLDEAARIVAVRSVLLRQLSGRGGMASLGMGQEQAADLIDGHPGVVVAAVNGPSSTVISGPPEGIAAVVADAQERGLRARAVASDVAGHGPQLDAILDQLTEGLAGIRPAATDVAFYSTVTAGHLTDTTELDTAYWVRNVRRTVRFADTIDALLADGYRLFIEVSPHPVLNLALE
T8 sequence (W8RMH0 entry or part of it V6755K): as the sequence (W8RMH0 entry or part of it) above, with V187K counted along it
T6 sequence (W8RMH0 entry or part of it Q6687A): as the sequence (W8RMH0 entry or part of it) above, with Q119A counted along it
T7 sequence (W8RMH0 entry or part of it Q6687A/L6753I/V6754D/V6755T/F6771L): as the sequence (W8RMH0 entry or part of it) above, with Q119A, L185I, V186D, V187T, F203L counted along it
T5 sequence (W8RMH0 entry or part of it L6753I/V6754D/V6755T): as the sequence (W8RMH0 entry or part of it) above, with L185I, V186D, V187T counted along it

Trans-acylation reaction (%) / MM-ACP10FkbA [1]: 51.2%
Compound: CC(C(=O)O)C(=O)SCCNC(=O)CCNC(=O)[C@H](O)C(C)(C)COP(=O)(O)OP(=O)(O)OC[C@H]1O[C@@H](n2cnc3c(N)ncnc32)[C@H](O)[C@@H]1OP(=O)(O)O (some centres unmarked) [MM-CoA]

Self-acylation reaction (%) / Allmal-AT4FkbB^∗ [2]: 49.8%
Self-acylation reaction (%) / Allmal-AT4FkbB^∗ (AT4FkbB of FK520 PKS [3]): 31.5%
Self-acylation reaction (%) / Allmal-AT4FkbB^∗ (AT4FkbB of FK520 PKS [4]): 61.3%
Self-acylation reaction (%) / Allmal-AT4FkbB^∗ [5]: 41.4%
Self-acylation reaction (%) / Allmal-AT4FkbB^∗ [6]: 17.8%
Self-acylation reaction (%) / Allmal-AT4FkbB^∗ (AT4FkbB of FK520 PKS [7]): 58.2%
Self-acylation reaction (%) / Allmal-AT4^∗FkbB (AT4FkbB of FK506 PKS [8]): 69.7%
Self-acylation reaction (%) / Allmal-AT4^∗FkbB (AT4FkbB of FK506 PKS [9]): 28.0%
Self-acylation reaction (%) / Allmal-AT4^∗FkbB (AT4FkbB of FK506 PKS [10]): 29.2%
Self-acylation reaction (%) / Allmal-AT4^∗FkbB (AT4FkbB of FK506 PKS [11]): 27.1%
Self-acylation reaction (%) / Allmal-AT4^∗FkbB (AT4FkbB of FK506 PKS [12]): 78.8%
Compound: C=CCC(C(=O)O)C(=O)SCCNC(=O)CCNC(=O)[C@H](O)C(C)(C)COP(=O)(O)OP(=O)(O)OC[C@H]1O[C@@H](n2cnc3c(N)ncnc32)[C@H](O)[C@@H]1OP(=O)(O)O (some centres unmarked) [allmal-CoA]

Self-acylation reaction (%) / Ethmal-AT4FkbB^∗ [13]: 63.7%
Self-acylation reaction (%) / Ethmal-AT4FkbB^∗ (AT4FkbB of FK520 PKS [3]): 65.1%
Self-acylation reaction (%) / Ethmal-AT4FkbB^∗ [6]: 78.1%
Self-acylation reaction (%) / Ethmal-AT4^∗FkbB (AT4FkbB of FK506 PKS [8]): 62.0%
Self-acylation reaction (%) / Ethmal-AT4^∗FkbB (AT4FkbB of FK506 PKS [12]): 32.3%
Compound: CCC(C(=O)O)C(=O)SCCNC(=O)CCNC(=O)[C@H](O)C(C)(C)COP(=O)(O)OP(=O)(O)OC[C@H]1O[C@@H](n2cnc3c(N)ncnc32)[C@H](O)[C@@H]1OP(=O)(O)O (some centres unmarked) [ethmal-CoA]
